# Measurements as given in patent publication US11007212B2, “Microbubble complexes and methods of use” (General Electric Company, priority 2011, dated 2021).
# {CholTEG} = cholesteryl-TEG lipid
# How the values were obtained:
# [1] = target: T1, Optison (Homo sapiens, UniProt P02768); assay: Gel shift assay, binding of siRNA to Optison albumin solution
# T1 construct: purchased GE Healthcare, Chalfont St. Giles, United Kingdom
# [2] = system: denatured HSA; assay: Gel shift assay, binding of siRNA to denatured HSA; set-up: species or system human; details: same amount of denatured HSA, compared with native HSA and Optison
# Source text: The reaction buffer was 1× PBS, pH 7.4.
# [3] = system: U-87 human glioblastoma cells; assay: Delivery of siRNA to U-87 tumor cells (cell cy3-fluorescence); assay type: cell-based; details: U-87 cells, 40 pmoles siRNA, 24 hours after sonication, MI>1.3
# Procedure: (§1) MATBIII rat mammary carcinoma and U-87 human glioblastoma cells were cultured in McCoy's 5A Medium (modified) (1×) (Invitrogen, Carlsbad, Calif., USA) and Eagle's Minimum Essential Medium (EMEM) (ATCC, Manassas, Va.) respectively. Both the media solutions were supplemented with 10% heat deactivated fetal bovine serum (FBS) (Fisher Scientific, Springfield, N.J.) and 1% penicillin-streptomycin (Sigma Aldrich, St Louis, Mo.). The cells were maintained at 37° C. in a humidified atmosphere with 5% CO2.
# (§2) MATB-III and U-87 cells were grown in 10 mL capacity Opticell units (Nalge Nunc International, Rochester, N.Y.) to 90% confluence. The media in OptiCell was replaced with 10 mL fresh media containing 40 pmoles of either cy3-siRNA or cholesterol-siRNA. […] After incubation, the cells were imaged using a fluorescence microscope (Zeiss Axio Imager.Z1, Carl Zeiss). […] In the region of interest (ROI) in the fluorescent images, cell fluorescence was measured and the mean values of cell fluorescence were calculated. ImageJ was used to process the images and calculate fluorescence intensities.
# (§3) The data are reported as mean+1.0 standard error (SE) for N=4. The statistical significance of the differences between the groups was evaluated using two-sample t-test and the statistical analyses were carried out using Minitab® 12 (Minitab Inc, State College, Pa. USA).
# [4] = system: MATBIII rat mammary carcinoma cells; assay: Delivery of siRNA to MATBIII cells, Optison/ultrasound versus RNAifect; assay type: cell-based; details: 24 hours
# Procedure: as §1, §2, §3
# [5] = target: native HSA (Homo sapiens, UniProt P02768)
# Sequence of native HSA (P02768 25-609): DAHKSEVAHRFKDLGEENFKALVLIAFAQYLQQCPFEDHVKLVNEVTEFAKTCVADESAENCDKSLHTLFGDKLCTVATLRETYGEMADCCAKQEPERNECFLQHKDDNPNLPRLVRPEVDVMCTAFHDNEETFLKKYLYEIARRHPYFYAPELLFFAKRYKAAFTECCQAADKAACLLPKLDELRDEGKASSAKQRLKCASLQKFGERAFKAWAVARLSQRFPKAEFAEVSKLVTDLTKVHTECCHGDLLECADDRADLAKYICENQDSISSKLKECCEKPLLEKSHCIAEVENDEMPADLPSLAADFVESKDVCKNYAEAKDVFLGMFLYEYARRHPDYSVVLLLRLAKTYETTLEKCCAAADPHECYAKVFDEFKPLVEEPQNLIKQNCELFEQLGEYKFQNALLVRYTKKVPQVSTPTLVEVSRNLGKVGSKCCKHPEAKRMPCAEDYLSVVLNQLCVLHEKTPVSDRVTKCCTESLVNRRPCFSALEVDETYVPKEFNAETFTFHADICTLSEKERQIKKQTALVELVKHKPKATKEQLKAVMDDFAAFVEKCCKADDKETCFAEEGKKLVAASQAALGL
# Procedure: Optison™ (GE Healthcare, Chalfont St. Giles, United Kingdom, 10 mg/ml albumin) was centrifuged; the top layer was discarded and the excess albumin solution in the bottom was used for the binding studies. Lyophilized human serum albumin (HSA) powder (Sigma Aldrich, St. Louis Mo.) was dissolved in 1× phosphate buffered saline (PBS) to make a stock solution of 10 mg/mL. Both Optison and native albumin solution dilutions were prepared with 1× PBS. Denatured HSA solution was prepared by heating native ESA solution to 80° C. for 20 minutes.
# The stock solutions of cy3-siRNA and cy3-siRNA-cholesterol, 20 μM were prepared in RNAse free water and stored at −20° C. […]
# All the reactions were loaded onto precast 6% nondenaturing polyacrylamide gels (Invitrogen, Carlsbad, Calif., USA). […] The gels containing either DNA, protein or both were imaged for cy3 fluorescence using a typhoon scanner (Typhoon™9410, GE Healthcare).
# The fluorescence of Cy3 attached to siRNA can be visualized as distinct siRNA bands on the gel.
# The fluorescence intensity of siRNA in each lane was estimated manually by drawing a box around the bands. […] Fluorescence intensities of bound siRNA over a wide range of albumin concentrations were calculated. Relative fluorescence, R was calculated as: R=(Fbound-Ffree)/Ffree (1) […]
# T1 sequence (P02768 25-609): as above
substance,measurement,setting,value
"cholesterol-siRNA: siRNA for VEGF silencing, 5'-Cy3 labelled, cholesteryl TEG lipid at 3' of sense strand (SEQ ID NO: 1 and 2) (sense GCAUUUGUUUGUCCAAGAUUU; antisense AAAUCUUGGACAAACAAAUGC; sense: 3' {CholTEG}, sugars by position and backbone not given here; antisense: chemistry not given here; 5'-Cy3 label, further chemistry not fully specified)",Binding to Optison solution in gel shift assay,[1]; 0 to 50 pmoles albumin,bound
same,Kd,"[1]; binding to Optison, gel shift, non-linear fit, read-out: Dissociation constant, kd",7.16 µM
same,Amount bound to Optison solution compared with native HSA,"[1]; low albumin concentration, 0 to 15 μM",higher
same,Binding to denatured HSA in gel shift assay,[2],significantly decreased
same,"Increase in average cell fluorescence, Optison/ultrasound treated versus untreated cells",[3],53%
same,"Average cell fluorescence, Optison/ultrasound delivery versus RNAifect",[4],no significant difference
same,Kd,[5],6.4 µM
same,Binding to native HSA in gel shift assay,[5]; 0 to 50 pmoles albumin,bound
